Source: patent publication US20240425808A1, “A METHOD FOR RAPID GENERATION OF 3D ORGANOTYPIC CELL CLUSTERS” (THE TRUSTEES OF INDIANA UNIVERSITY, priority 2022, published 2024)

Legend:
Format in all cases: cell-based, human
[1] = tested on: IFN-γ gene expression in CD4/CD8+ T cells; experiment: qRT-PCR of IFN-γ expression in CD4/CD8+ T cells isolated from APCCs; details: n=3
Procedure: (§1) Cabozantinib (SelleckChem) was added at 10 μM to the APCCs.
(§2) For qRT-PCR analysis of the CD15+ cells and CD4/8+ T cells, CD15+ cells or CD4/8+ T cells were pre-labeled by CD15 or CD4-and-CD8 (1:1) magnetic beads for 15 minutes at 4° C. respectively before mixed with other tumor cells for acoustic assembly. The CD15+ cells or CD4/8+ T cells with the labeling beads were then assembled into APCCs. To analyze their gene expression profiles, the APCCs were digested by with cell recovery solution (Corning), and input onto MACS columns (Miltenyi) for positive magnetic separation to isolate pure CD15+ cells or T cells (CD4+ or CD8+). The purified CD15+ cells or CD4/8+ T cells were then lysed for RNA extraction by RNeasy Mini Kit (Qiagen), reverse transcribed to cDNA by High-Capacity cDNA Reverse Transcription Kit (Applied Biosystems), and analyzed using corresponding primer pairs (Table 2) and SYBR Green PCR Master Mix (Applied Biosystems). The samples were run on a StepOne Real Time PCR machine (Applied Biosystems) to quantify signals. The results were analyzed using AACt method for fold change analysis.

IFN-γ = experiment: ELISA analysis of IFN-γ in APCC culture supernatants; details: n=3
Procedure: (§3) The levels of TNF-α and IFN-γ were elevated in the APCCs treated with anti-PD1. […] (FIG. 4B).
as §1
(§4) To perform cytokine analysis on the APCCs and 2D tumor cultures, 50 μL supernatants were pipetted out of the culture vessel and centrifuged at 10,000 g for 10 minutes to remove cell debris. The supernatants were then analyzed by human TNF-α or IFN-γ kits (Tribioscience).

TNF-α = experiment: ELISA analysis of TNF-α in APCC culture supernatants; details: n=3
Procedure: as §3, §1, §4

[2] = tested on: TNF-α gene expression in CD4/CD8+ T cells; experiment: qRT-PCR of TNF-α expression in CD4/CD8+ T cells isolated from APCCs; details: n=3
Procedure: as §1, §2

[3] = tested on: tumor cells within RCC derived APCCs; experiment: Tumor cell death within APCCs by time-lapse imaging; details: 24-hour time lapse, anti-PD1 5 μg/mL
Procedure: To evaluate the preservation of MDSC viability inside APCCs, initial tests were performed with renal cell carcinoma (RCC) primary tumors from patients. For MDSC study, the CD15+ cells were first isolated from dissociated patient tumor cells via magnetic microbeads, which consist of tumor infiltrating neutrophils including immunosuppressive polymorphonuclear myeloid derived suppressor cells (PMN-MDSCs). The CD15+ cells were pre-labelled with DiL membrane dyes (shown as yellow). T cells were isolated via a 1:1 mixture of CD4 and CD8 microbeads and pre-labeled the T cells with DiO membrane dyes. The CD15+, CD4+, CD8+ depleted dissociated tumor cells were labeled with the blue CMAC cell tracker dye. Membrane impermeable cell nucleus staining NucRed dead 647 was added to indicate cell death. The cell death of the CD15+ cells was calculated by analyzing co-localization of Dil labeled MDSCs and NucRed cell death indicator dye over time-lapse imaging (FIG. 2A).
MDSC-targeting drugs alone and/or in combination with ICIs. […] The tumor cell death over a 24-hour time lapse was observed. […]
Digested tumor cells were equally divided into 3 tubes. […] Before acoustic assembly, 1 drop of NucRed Dead 647 ReadyProbes (Invitrogen) was added to 1 milliter of cell suspensions and left in medium to visualize cell death over time. […]

[4] = APCCs without CD15+ cells, 24 hours post-treatment
[5] = T cells isolated from APCCs 24 hours post-treatment

Pembrolizumab [anti-PD1]
IFN-γ gene expression in CD4/CD8+ T cells, APCCs without CD15+ cells [1, 4]: highest
IFN-γ gene expression in CD4/CD8+ T cells [1, 5]: enhanced
IFN-γ level in culture supernatant, APCCs without CD15+ cells (IFN-γ; APCCs without CD15+ cells): further elevated
IFN-γ level in culture supernatant (IFN-γ; RCC APCCs, vs control): elevated
TNF-α level in culture supernatant, APCCs without CD15+ cells (TNF-α; APCCs without CD15+ cells): further elevated
TNF-α level in culture supernatant (TNF-α; RCC APCCs, vs control): elevated
TNF-α gene expression in CD4/CD8+ T cells, APCCs without CD15+ cells [2, 4]: highest
TNF-α gene expression in CD4/CD8+ T cells [2, 5]: enhanced
increase in tumor cell death as compared to untreated control ([3]; APCCs from 3 RCC patient primary tumors, Cabozantinib 10 μM): about 17.0%±9.4%
increase in tumor cell death as compared to untreated control, APCCs without CD15+ cells ([3]; APCCs without CD15+ cells (MDSCs removal)): about 40.9%±9.4%
